Experiments:
[1] = biological target: T1, Prostaglandin G/H synthase 2 (Homo sapiens, UniProt P35354)
T1 sequence (P35354 whole entry): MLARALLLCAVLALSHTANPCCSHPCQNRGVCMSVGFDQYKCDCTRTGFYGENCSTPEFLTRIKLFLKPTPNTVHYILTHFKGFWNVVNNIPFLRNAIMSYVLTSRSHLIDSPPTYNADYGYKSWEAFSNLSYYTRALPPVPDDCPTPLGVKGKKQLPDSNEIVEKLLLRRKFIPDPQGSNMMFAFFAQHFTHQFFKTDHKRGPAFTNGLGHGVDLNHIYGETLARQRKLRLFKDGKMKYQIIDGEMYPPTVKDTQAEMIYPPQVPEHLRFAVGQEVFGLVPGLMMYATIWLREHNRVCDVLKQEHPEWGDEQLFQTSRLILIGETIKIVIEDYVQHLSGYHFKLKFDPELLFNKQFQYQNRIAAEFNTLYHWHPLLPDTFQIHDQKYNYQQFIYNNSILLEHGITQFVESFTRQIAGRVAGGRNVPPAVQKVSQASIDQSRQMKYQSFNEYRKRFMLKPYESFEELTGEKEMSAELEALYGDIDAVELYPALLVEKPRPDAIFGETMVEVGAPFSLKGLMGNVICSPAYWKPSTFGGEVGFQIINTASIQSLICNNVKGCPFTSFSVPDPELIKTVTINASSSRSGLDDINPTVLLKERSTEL
Description: Inhibition of the human Prostaglandin G/H synthase 2 was determined by thin-layer chromatography assay

[2] = biological target: T2, Prostaglandin G/H synthase 1 (Ovis aries, UniProt P05979); assay: Inhibition of the ovine Prostaglandin G/H synthase 1 was determined by thin-layer chromatography assay
T2 sequence (P05979 whole entry): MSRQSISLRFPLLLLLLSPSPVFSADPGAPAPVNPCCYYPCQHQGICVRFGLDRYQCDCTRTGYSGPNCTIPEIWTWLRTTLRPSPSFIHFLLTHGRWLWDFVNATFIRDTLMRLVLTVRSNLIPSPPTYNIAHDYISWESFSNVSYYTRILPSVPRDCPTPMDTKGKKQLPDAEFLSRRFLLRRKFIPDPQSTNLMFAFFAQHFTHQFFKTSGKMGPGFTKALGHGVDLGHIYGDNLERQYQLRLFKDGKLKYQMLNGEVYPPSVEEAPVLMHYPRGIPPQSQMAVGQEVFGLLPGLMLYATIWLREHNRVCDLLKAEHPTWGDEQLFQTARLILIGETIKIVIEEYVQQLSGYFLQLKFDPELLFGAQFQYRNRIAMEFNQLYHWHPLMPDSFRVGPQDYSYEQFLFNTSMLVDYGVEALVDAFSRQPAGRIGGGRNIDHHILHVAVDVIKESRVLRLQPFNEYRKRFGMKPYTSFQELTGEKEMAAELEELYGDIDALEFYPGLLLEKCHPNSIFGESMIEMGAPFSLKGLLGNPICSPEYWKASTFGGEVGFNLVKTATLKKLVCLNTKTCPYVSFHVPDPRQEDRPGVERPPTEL

[3] = biological target: T3, Prostaglandin G/H synthase 2 (Mus musculus, UniProt Q05769, R106A)
T3 sequence (Q05769 18-604 R106A limits assumed): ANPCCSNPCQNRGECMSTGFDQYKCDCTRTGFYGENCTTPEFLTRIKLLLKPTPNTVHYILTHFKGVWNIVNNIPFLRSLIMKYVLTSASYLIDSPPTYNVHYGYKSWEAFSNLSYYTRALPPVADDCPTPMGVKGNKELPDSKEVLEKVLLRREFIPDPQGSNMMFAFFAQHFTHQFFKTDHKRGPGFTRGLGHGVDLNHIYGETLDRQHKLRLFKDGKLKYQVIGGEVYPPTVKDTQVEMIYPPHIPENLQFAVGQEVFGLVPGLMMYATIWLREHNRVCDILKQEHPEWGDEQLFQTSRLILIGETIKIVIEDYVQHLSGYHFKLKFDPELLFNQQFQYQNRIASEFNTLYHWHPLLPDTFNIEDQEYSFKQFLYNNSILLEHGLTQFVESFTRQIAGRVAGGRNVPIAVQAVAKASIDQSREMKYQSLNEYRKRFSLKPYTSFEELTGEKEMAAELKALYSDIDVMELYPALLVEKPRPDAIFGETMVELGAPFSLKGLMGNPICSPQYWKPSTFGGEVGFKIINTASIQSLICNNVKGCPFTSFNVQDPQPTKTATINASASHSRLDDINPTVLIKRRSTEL
Description: Inhibition of the Arg120Ala murine COX-2 mutant enzyme

[4] = Inhibitory concentration against prostaglandin E2
[5] = biological target: T3, Prostaglandin G/H synthase 2; assay: Inhibition of the murine Arg120Ala mutant type COX-2
[6] = biological target: T4, Prostaglandin G/H synthase 2 (Mus musculus, UniProt Q05769); assay: Inhibition of the murine wild type Prostaglandin G/H synthase 2
T4 sequence (Q05769 whole entry): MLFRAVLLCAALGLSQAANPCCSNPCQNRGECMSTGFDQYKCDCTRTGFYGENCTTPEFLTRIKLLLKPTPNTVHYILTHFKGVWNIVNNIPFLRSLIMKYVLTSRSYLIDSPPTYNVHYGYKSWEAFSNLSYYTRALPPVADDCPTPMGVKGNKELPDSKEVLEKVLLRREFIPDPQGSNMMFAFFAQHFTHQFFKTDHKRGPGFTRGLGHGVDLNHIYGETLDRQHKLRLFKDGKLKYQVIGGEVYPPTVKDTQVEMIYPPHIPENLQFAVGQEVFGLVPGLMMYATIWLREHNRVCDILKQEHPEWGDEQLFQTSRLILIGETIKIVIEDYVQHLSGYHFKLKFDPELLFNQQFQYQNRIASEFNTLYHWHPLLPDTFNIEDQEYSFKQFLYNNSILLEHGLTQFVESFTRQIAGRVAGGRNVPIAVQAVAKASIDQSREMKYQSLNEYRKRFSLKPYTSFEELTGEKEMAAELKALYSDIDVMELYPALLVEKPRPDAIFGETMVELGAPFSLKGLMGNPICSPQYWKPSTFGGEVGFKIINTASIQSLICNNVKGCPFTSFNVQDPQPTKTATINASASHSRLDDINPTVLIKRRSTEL

| SMILES | IC50 [1] [nM] | IC50 [2] [nM] | IC50 [3] [nM] | IC50 [4] [nM] | IC50 [5] [nM] | IC50 [6] [nM] |
| --- | --- | --- | --- | --- | --- | --- |
| Cc1ccc(Cl)c(Nc2ccccc2C(=O)NCCO)c1Cl | 1000 | 600 | – | – | – | – |
| CCOC(=O)CNC(=O)c1ccccc1Nc1c(Cl)ccc(C)c1Cl | 4000 | 200 | – | – | – | – |
| Cc1ccc(Cl)c(Nc2ccccc2C(=O)NCCBr)c1Cl | 2000 | 70 | – | – | – | – |
| Cc1ccc(Cl)c(Nc2ccccc2C(=O)NCCCCl)c1Cl | 2400 | 60 | – | – | – | – |
| COC(=O)[C@H](C)NC(=O)c1ccccc1Nc1c(Cl)ccc(C)c1Cl | 2600 | 800 | – | – | – | – |
| Cc1ccc(Cl)c(Nc2ccccc2C(=O)NOCc2ccc([N+](=O)[O-])cc2)c1Cl | 66000 | 200 | – | – | – | – |
| CCCCCCCCNC(=O)c1ccccc1Nc1c(Cl)ccc(C)c1Cl | 60 | 50 | – | – | – | – |
| CNC(=O)c1ccccc1Nc1c(Cl)ccc(C)c1Cl | > 2000 | > 2000 | – | – | – | – |
| Cc1ccc(Cl)c(Nc2ccccc2C(=O)NCCc2ccccc2)c1Cl | 4000 | 4500 | – | – | – | – |
| Cc1ccc(Cl)c(Nc2ccccc2C(=O)N[C@H](C)C(=O)O)c1Cl | > 33000 | 8000 | – | – | – | – |
| COC(=O)c1ccccc1Nc1c(Cl)ccc(C)c1Cl | 4000 | 17000 | – | – | – | – |
| Cc1ccc(Cl)c(Nc2ccccc2C(=O)NOC(C)(C)C)c1Cl | 66000 | 8000 | – | – | – | – |
| Cc1ccc(Cl)c(Nc2ccccc2C(=O)NCC(=O)O)c1Cl | 300 | 400 | – | – | – | – |
| CC(=O)Nc1ccc(OC(=O)c2ccccc2Nc2c(Cl)ccc(C)c2Cl)cc1 | > 20000 | > 20000 | – | – | – | – |
| Cc1ccc(Cl)c(Nc2ccccc2C(=O)N[C@@H](C)C(=O)O)c1Cl | 33000 | 6000 | – | – | – | – |
| Cc1ccc(Cl)c(Nc2ccccc2C(=O)NCCOc2ccccc2)c1Cl | 66000 | 150 | 550 | 1800 | – | – |
| COC(=O)[C@@H](C)NC(=O)c1ccccc1Nc1c(Cl)ccc(C)c1Cl | 6000 | 2700 | – | – | – | – |
| CONC(=O)c1ccccc1Nc1c(Cl)ccc(C)c1Cl | 55000 | 500 | – | – | – | – |
| Cc1ccc(Cl)c(Nc2ccccc2C(=O)NOCc2ccccc2)c1Cl | 66000 | 1000 | – | – | – | – |
| COC(=O)CNC(=O)c1ccccc1Nc1c(Cl)ccc(C)c1Cl | 1200 | 70 | – | – | – | – |
| Cc1ccc(Cl)c(Nc2ccccc2C(=O)NNCc2ccccc2)c1Cl | 6300 | 5000 | – | – | – | – |
| Cc1ccc(Cl)c(Nc2ccccc2C(=O)O)c1Cl [MECLOFENAMIC ACID] | 40 | 50 | – | – | 400 | 200 |
| COCCCNC(=O)c1ccccc1Nc1c(Cl)ccc(C)c1Cl | 11000 | 250 | – | – | – | – |
| COCCNC(=O)c1ccccc1Nc1c(Cl)ccc(C)c1Cl | 3000 | 140 | – | – | – | – |
